{"source": "patent US11540517B2", "about": "“Active compound combinations having insecticidal/acaricidal properties” (Bayer Aktiengesellschaft, priority 2017, dated 2023)", "assay_type_in_all_cases": "in vivo", "key": {"Tetranychus urticae": {"tested_on": "Tetranychus urticae", "assay": "Tetranychus urticae - spray test OP-resistant", "conditions": "mortality", "experimental": "(§1) The expected efficacy of a given combination of two compounds is calculated as follows (see Colby, S. R., “Calculating Synergistic and antagonistic Responses of Herbicide Combinations”, Weeds 15, pp. 20-22, 1967): • If • X is the efficacy expressed in % mortality of the untreated control for test compound A at a concentration of m ppm respectively m g/ha, • Y is the efficacy expressed in % mortality of the untreated control for test compound B at a concentration of n ppm respectively n g/ha, • E is the efficacy expressed in % mortality of the untreated control using the mixture of A and B at m and n ppm respectively m and n g/ha, • then is\n(§2) [formula] • If the observed insecticidal efficacy of the combination is higher than the one calculated as “E”, then the combination of the two compounds is more than additive, i.e. there is a synergistic effect.\nTetranyechus urticae—Spray Test OP-Resistant\nSolvent: 78.0 parts by weight acetone\n1.5 parts by weight dimethylformamide\nEmulsifier: alkylarylpolyglycol ether\n(§3) To produce a suitable preparation of active compound, 1 part by weight of active compound is mixed with the stated amount of solvents and is diluted with water, containing an emulsifier concentration of 1000 ppm, to the desired concentration. Further test concentrations are prepared by dilution with emulsifier containing water.\nFrench bean (Phaseolus vulgaris) leaf disks infected with all instars of the two spotted spidermite (Tetranychus urticae), are sprayed with a preparation of the active ingredient of the desired concentration.\nAfter the specified period of time, mortality in % is determined. 100% means all spider mites have been killed and 0% means none of the spider mites have been killed. The mortality values determined thus are recalculated using the Colby-formula (see above)."}, "Spodoptera frugiperda": {"tested_on": "Spodoptera frugiperda", "assay": "Spodoptera frugiperda - spray test", "conditions": "mortality", "experimental": "as §1, §2\nSpodoptera frugiperda—Spray Test\n(§4) Solvent: 7 parts by weight of dimethylformamide\n(§5) Emulsifier: alkylaryl polyglycol ether\nas §3, with “solvent” for “solvents”\nCotton leaves (Gossypium hirsutum) are treated by being sprayed with the preparation of the active compound of the desired concentration and are infested with caterpillars of the fall army worm (Spodoptera frugiperda).\nAfter the specified period of time mortality in % is determined. 100% means all the caterpillars have been killed and 0% means none of the caterpillars have been killed. The mortality values determined thus are recalculated using the Colby-formula (see above)."}, "Phaedon cochleariae": {"tested_on": "Phaedon cochleariae", "assay": "Phaedon cochleariae - spray test", "conditions": "mortality", "experimental": "as §1, §2\nPhaedon cochleariae—Spray Test\nas §4, §5\nas §3, with “solvent” for “solvents”\nAfter the specified period of time mortality in % is determined. 100% means all the beetle larvae have been killed and 0% means none of the beetle larvae have been killed. The mortality values determined thus are recalculated using the Colby-formula (see above)."}, "Aphis gossypii": {"tested_on": "Aphis gossypii", "assay": "Aphis gossypii - spray test", "conditions": "0.4 ppm, mortality", "experimental": "as §1, §2\nAphis gossypii—Spray Test\nas §4, §5\nTo produce a suitable preparation of active compound, 1 part by weight of active compound is mixed with the stated amount of solvent and is diluted with water, containing an emulsifier concentration of 1000 ppm, to the desired concentration. […]\nAfter the specified period of time the mortality in % is determined. […] The mortality values determined thus are recalculated using the Colby-formula (see above)."}}, "data": [{"smiles": "CN1COCN(Cc2cnc(Cl)s2)C1=N[N+](=O)[O-]", "note": "(mixture of isomers) [Thiametoxam, (EZ)-3-(2-chloro-1,3-thiazol-5-ylmethyl)-5-methyl-1,3,5-oxadiazinan-4-ylidene(nitro)amine]", "values": [{"measurement": "Efficacy in % after 2 days", "setting": "Tetranychus urticae; 0.1 g ai/ha", "result": 0, "unit": "%"}, {"measurement": "Efficacy in % after 2 days", "setting": "Tetranychus urticae; 0.4 g ai/ha", "result": 0, "unit": "%"}, {"measurement": "Efficacy in % after 2 days", "setting": "Tetranychus urticae; 1.6 g ai/ha", "result": 0, "unit": "%"}]}, {"smiles": "CNC(=N[N+](=O)[O-])NCC1CCOC1", "note": "(racemic) [Dinotefuran, (EZ)-(RS)-1-methyl-2-nitro-3-(tetrahydro-3-furylmethyl)guanidine]", "values": [{"measurement": "Efficacy in % after 6 days", "setting": "Tetranychus urticae; 0.2 g ai/ha, after 6 days", "result": 0, "unit": "%"}]}, {"smiles": "C/C(=N\\C#N)N(C)Cc1ccc(Cl)nc1", "note": "[Acetamiprid, (E)-N^1-[(6-chloro-3-pyridyl)methyl]-N^2-cyano-N-methylacetamidine]", "values": [{"measurement": "Efficacy in % after 2 days", "setting": "Tetranychus urticae; 0.4 g ai/ha", "result": 0, "unit": "%"}, {"measurement": "Efficacy in % after 2 days", "setting": "Tetranychus urticae; 1.6 g ai/ha", "result": 0, "unit": "%"}, {"measurement": "Efficacy in % after 2 days", "setting": "Tetranychus urticae; 6.4 g ai/ha", "result": 0, "unit": "%"}, {"measurement": "Efficacy in % after 2 days", "setting": "Spodoptera frugiperda; 48 ppm", "result": 0, "unit": "%"}, {"measurement": "Efficacy in % after 3 days", "setting": "Spodoptera frugiperda; 48 ppm", "result": 0, "unit": "%"}, {"measurement": "Efficacy in % after 6 days", "setting": "Spodoptera frugiperda; 48 ppm", "result": 10, "unit": "%"}, {"measurement": "Efficacy in % after 1 day", "setting": "Spodoptera frugiperda; 96 ppm", "result": 10, "unit": "%"}, {"measurement": "Efficacy in % after 2 days", "setting": "Spodoptera frugiperda; 96 ppm", "result": 20, "unit": "%"}, {"measurement": "Efficacy in % after 3 days", "setting": "Spodoptera frugiperda; 96 ppm", "result": 40, "unit": "%"}, {"measurement": "Efficacy in % after 6 days", "setting": "Spodoptera frugiperda; 96 ppm", "result": 50, "unit": "%"}]}, {"smiles": "CN/C(=N\\[N+](=O)[O-])NCc1cnc(Cl)s1", "note": "[Clothianidin, (E)-1-(2-chloro-1,3-thiazol-5-ylmethyl)-3-methyl-2-nitroguanidine]", "values": [{"measurement": "Efficacy in % after 3 days", "setting": "Spodoptera frugiperda; 24 ppm", "result": 40, "unit": "%"}, {"measurement": "Efficacy in % after 1 day", "setting": "Spodoptera frugiperda; 48 ppm", "result": 10, "unit": "%"}, {"measurement": "Efficacy in % after 1 day", "setting": "Phaedon cochleariae; 2 ppm", "result": 10, "unit": "%"}, {"measurement": "Efficacy in % after 2 days", "setting": "Phaedon cochleariae; 2 ppm", "result": 10, "unit": "%"}, {"measurement": "Efficacy in % after 3 days", "setting": "Phaedon cochleariae; 2 ppm", "result": 25, "unit": "%"}, {"measurement": "Efficacy in % after 3 days", "setting": "Phaedon cochleariae; 4 ppm", "result": 60, "unit": "%"}, {"measurement": "Efficacy in % after 1 day", "setting": "Phaedon cochleariae; 8 ppm", "result": 45, "unit": "%"}, {"measurement": "Efficacy in % after 2 days", "setting": "Phaedon cochleariae; 8 ppm", "result": 55, "unit": "%"}, {"measurement": "Efficacy in % after 3 days", "setting": "Phaedon cochleariae; 8 ppm", "result": 75, "unit": "%"}]}, {"smiles": "Cc1cc(F)c(N=C2SCC(=O)N2CC(F)(F)F)cc1[S+]([O-])CC(F)(F)F", "note": "(centres unmarked) [Cpd of formula (I)]", "values": [{"measurement": "Efficacy in % after 2 days", "setting": "Tetranychus urticae; 0.1 g ai/ha", "result": 0, "unit": "%"}, {"measurement": "Efficacy in % after 3 days", "setting": "Spodoptera frugiperda; 2.4 ppm", "result": 0, "unit": "%"}, {"measurement": "Efficacy in % after 1 day", "setting": "Spodoptera frugiperda; 4.8 ppm", "result": 0, "unit": "%"}, {"measurement": "Efficacy in % after 2 days", "setting": "Spodoptera frugiperda; 4.8 ppm", "result": 0, "unit": "%"}, {"measurement": "Efficacy in % after 3 days", "setting": "Spodoptera frugiperda; 4.8 ppm", "result": 0, "unit": "%"}, {"measurement": "Efficacy in % after 6 days", "setting": "Spodoptera frugiperda; 4.8 ppm", "result": 0, "unit": "%"}, {"measurement": "Efficacy in % after 1 day", "setting": "Spodoptera frugiperda; 9.6 ppm", "result": 0, "unit": "%"}, {"measurement": "Efficacy in % after 2 days", "setting": "Spodoptera frugiperda; 9.6 ppm", "result": 0, "unit": "%"}, {"measurement": "Efficacy in % after 3 days", "setting": "Spodoptera frugiperda; 9.6 ppm", "result": 0, "unit": "%"}, {"measurement": "Efficacy in % after 6 days", "setting": "Spodoptera frugiperda; 9.6 ppm", "result": 0, "unit": "%"}, {"measurement": "Efficacy in % after 1 day", "setting": "Phaedon cochleariae; 1 ppm", "result": 0, "unit": "%"}, {"measurement": "Efficacy in % after 2 days", "setting": "Phaedon cochleariae; 1 ppm", "result": 0, "unit": "%"}, {"measurement": "Efficacy in % after 3 days", "setting": "Phaedon cochleariae; 1 ppm", "result": 0, "unit": "%"}, {"measurement": "Efficacy in % after 3 days", "setting": "Phaedon cochleariae; 2 ppm", "result": 0, "unit": "%"}, {"measurement": "Efficacy in % after 1 day", "setting": "Phaedon cochleariae; 4 ppm", "result": 0, "unit": "%"}, {"measurement": "Efficacy in % after 2 days", "setting": "Phaedon cochleariae; 4 ppm", "result": 10, "unit": "%"}, {"measurement": "Efficacy in % after 3 days", "setting": "Phaedon cochleariae; 4 ppm", "result": 10, "unit": "%"}]}, {"smiles": "O=C1C=C(N(Cc2ccc(Cl)nc2)CC(F)F)CO1", "note": "[Flupyradifurone, 4-[(6-chloro-3-pyridylmethyl)(2,2-difluoroethyl)amino]furan-2(5H)-one]", "values": [{"measurement": "Efficacy in % after 2 days", "setting": "Tetranychus urticae; 0.4 g ai/ha", "result": 0, "unit": "%"}, {"measurement": "Efficacy in % after 2 days", "setting": "Tetranychus urticae; 1.6 g ai/ha", "result": 0, "unit": "%"}, {"measurement": "Efficacy in % after 2 days", "setting": "Tetranychus urticae; 6.4 g ai/ha", "result": 0, "unit": "%"}]}, {"smiles": "O=[N+]([O-])N=C1NCCN1Cc1cnc(Cl)s1", "note": "[Imidaclothiz, (EZ)-1-(2-chloro-1,3-thiazol-5-ylmethyl)-N-nitroimidazolidin-2-ylideneamine]", "values": [{"measurement": "Efficacy in % after 2 days", "setting": "Tetranychus urticae; 0.8 g ai/ha", "result": 0, "unit": "%"}, {"measurement": "Efficacy in % after 2 days", "setting": "Tetranychus urticae; 3.2 g ai/ha", "result": 0, "unit": "%"}, {"measurement": "Efficacy in % after 2 days", "setting": "Tetranychus urticae; 12.8 g ai/ha", "result": 0, "unit": "%"}, {"measurement": "Efficacy in % after 6 days", "setting": "Aphis gossypii", "result": 20, "unit": "%"}]}]}
